# According to a melting point compilation (Tetko et al.):
row,Compound,melting point [°C]
1,CCC(C#N)CC#N (stereo not given),-41
2,C=C(C)CC1(CC)C(=O)NC(=S)NC1=O,160
3,CCc1ssc(=O)c1-c1ccccc1,82
4,O=C(NC(Cc1ccccn1)C(=O)O)OCC1c2ccccc2-c2ccccc21 (stereo not given),154
5,COP(=S)(OC)Oc1cc(Cl)c(Cl)cc1Cl,41
6,COc1cc(N)c2ncccc2c1,52
7,FC(F)(F)C(Cl)=C(Cl)C(F)(F)F,-67.3
8,NC(=O)CBr,89
9,Cc1cc(C(=O)NCCc2ccc(S(=O)(=O)NC(=O)NN3CCCCCC3)cc2)no1,189
10,O=[N+]([O-])c1c(O)cc(O)cc1O,189
11,CCCCC(=O)CCCC,-3.8
12,O=Cc1cc(Br)cc(OC(F)(F)F)c1O,46
13,CCCCn1c2ccccc2c2ccccc21,58
14,CC(=O)C(C(C)=O)C(c1ccc(C)o1)c1ccc(C)o1,60
15,CCOC(=O)Cc1c(C(=O)OCC)[nH]c(C)c1C(=O)OCc1ccccc1,110 to 112
16,Nc1c([N+](=O)[O-])ccc(Oc2ccccc2)c1Cl,81.5
17,CC(CC1CCCCC1)CC1CCCCC1,0.6
18,N#C/C(=N\Nc1ccc(Cl)cc1Cl)c1nc(-c2ccc(Cl)cc2)cs1,246
19,Cc1ccc(C)c(Cl)c1,1.6
20,CCN1CCc2c3n(c4ccccc24)C(C(=O)OC)=CCC31 (stereo not given),120
21,O=C(O)C1CCN(c2ccc(C(F)(F)F)cn2)CC1,162 to 164
22,Clc1ccc(COC(Cn2ccnc2)c2ccc(Cl)cc2Cl)cc1 (stereo not given),86.8
23,CC(CCc1ccc(CCC(C)OC(=O)Nc2ccccc2)cc1)OC(=O)Nc1ccccc1 (stereo not given),165
24,Clc1ccc2scc(CBr)c2c1,129 to 130
25,O=C(O)Cc1cccc(Cl)c1Cl,134

row,Compound,melting point [°C]
1,CSc1cc(-c2ccc3ccccc3c2)c2c(=O)n(-c3ccccc3)n(C)c2c1,179
2,N#Cc1c(F)c(F)c(F)c(F)c1C#N,83
3,O=C(O)Cc1c[nH]c2ccc(Br)cc12,141 to 148
4,CCCCCCCNCCCCCCC,31.5
5,OCC#Cc1cc(C(F)(F)F)cc(C(F)(F)F)c1,58 to 60
6,O=C(NC(=C(NC(=O)c1ccccc1)c1ccccc1)c1ccccc1)c1ccccc1,100
7,CCCCCCNC(=O)c1ccc(O)c(O)c1,140
8,Cc1nn(-c2cc(NS(C)(=O)=O)c(Cl)cc2Cl)c(=O)n1C(F)F,122
9,O=C(O)c1cc2sccc2s1,222
10,COc1ccccc1C1Nc2nc(C(F)(F)F)nn2C(N)=C1C#N (stereo not given),245
11,O=C(c1ccccc1)c1ccc(Cl)c([N+](=O)[O-])c1,105
12,Cc1nn(C)c2ncc3c(=O)[nH]n(C)c3c12,300
13,BrC1(c2ccccc2)c2ccccc2-c2ccccc21,97
14,Cn1ccc2cc(N)ccc21,102 to 103
15,Cc1ccc(/C=C2/C=C(CC(C)C)OC2=O)o1,88
16,O=C(Cl)c1cccc(F)c1,-30
17,N#C/C(=N\Nc1cccc(O)c1)c1nc2ccccc2[nH]1,238
18,N#CC1=C(N)OC2=C(CCCC2)C1c1ccccc1 (stereo not given),261
19,O=S(=O)(Cl)c1ccccc1Br,50 to 51
20,Cc1noc(-c2ccccc2C(=O)O)n1,152 to 153
21,CC(=O)CC(c1ccc(Cl)cc1)c1c(O)c2ccccc2oc1=O (stereo not given),170
22,COc1ccc2[nH]c(C)c(CC(=O)O)c2c1,162 to 165
23,Cc1ccc(Oc2cccc(F)c2C#N)cc1,93 to 95
24,O=C(O)c1ccc(-n2cccn2)cc1,269 to 270
25,O=C1C=CC(=O)N1c1ccc(Br)cc1,135 to 137

row,Compound,melting point [°C]
1,CC(=O)OC1C(O)C2=C(C(=O)C(OC(C)=O)C3(CC3C)C2=O)C2(C)CCC(OC(C)=O)C(C)(C)C12 (stereo not given),116 to 117
2,N#Cc1cccnc1Cl,107 to 109
3,COc1cc2c(cc1OC)C(C(=O)O)C2 (stereo not given),134 to 143
4,CC(C)(C)OC(=O)NCC1CCN(Cc2ccccc2)CC1,102 to 103
5,c1coc(P(c2ccco2)c2ccco2)c1,62
6,Oc1c(Cl)cccc1-c1ccccc1,6
7,Oc1ccc2ccccc2c1Cc1c(O)ccc2ccccc12,188 to 190
8,Cc1cnc(N)c(Br)c1,72
9,O=Cc1ccccc1-n1cccn1,58
10,O=C(CBr)c1cccc(F)c1,34 to 35
11,O=[N+]([O-])c1ccc(NN=Cc2cccc3c(Br)ccc([N+](=O)[O-])c23)cc1,205
12,O=C(Cl)c1ccc(Cl)c([N+](=O)[O-])c1,53.5
13,O=C(Nc1cccnc1)C(F)(F)C(F)(F)C(F)(F)C(F)(F)C(F)(F)C(F)(F)C(F)(F)C(F)(F)F,145
14,CC12CCC(=O)CC1CCC13OC14CCC(=O)C4(C)CCC23 (stereo not given),171 to 173
15,NC(=S)Cc1ccc(-c2csnn2)cc1,169 to 171
16,Cn1ccc2ccc(C=O)cc21,81
17,COC(=O)c1ccc(N)c(Br)c1,104 to 108
18,C=C1C(=O)C23C(OC(C)=O)CC4C5(C)CCCC4(C(OC(C)=O)OC5)C2C(OC(C)=O)CC1C3OC(C)=O (stereo not given),224
19,O=C(O)C(C(=O)O)c1ccccc1,153 to 155
20,O=[N+]([O-])c1cnc(Br)s1,88
21,N#Cc1ccnc2ccccc12,104
22,Br/C(=C(/Br)c1ccccc1)c1ccccc1,228
23,Cc1noc2c1c(=O)n(-c1ccccc1)c1ccccc21,283
24,CCCCCCCCCCCC(=O)NC,68

# Next, values leading:
row,melting point [°C],Compound
1,155,C/C(=C(/C#N)c1nc2ccccc2s1)c1cc2ccccc2oc1=O
2,239 to 242,c1cc2c3c(cccc3c1)-c1nc3ccccc3nc1-2
3,262,Cc1ccc2c(c1[N+](=O)[O-])C(=O)c1c(Cl)c(Cl)c(Cl)c(Cl)c1C2=O
4,137,CC(=O)N1C(=O)c2ccccc2C1=O
5,134,COC(=O)c1cc(Br)ccc1NC(C)=O
6,228,N#Cc1cnc2[nH]ccc2c1
7,184 to 186,Cc1oc(S(=O)(=O)N2CCOCC2)cc1C(=O)O
8,161,CCCC(/C=C1\C(=O)C2(C)CCC1C2(C)C)(/C=C1\C(=O)C2(C)CCC1C2(C)C)C(=O)OCC (stereo not given)
9,99 to 103,CCOC(=O)[C@@H]1CC=CC[C@@H]1N (relative stereo)
10,-5 to -4,CC1CCCCN1 (stereo not given)
11,77 to 78,C[C@@]12CCC[C@@H]1C1=C(CC2)[C@@]2(C)CCC(=O)CC2CC1 (stereo not given in full)
12,102,CC(C)n1c(C(F)(F)F)nc2cc(C(=O)Cl)ccc21
13,300,O=S1(=O)OC(c2ccc(O)cc2)(c2ccc(O)cc2)c2ccccc21
14,118,Oc1cccc(I)c1
15,158 to 159,O=C1OC(c2ccccc2)=NC1=Cc1ccco1
16,178 to 179,Nc1ccc(C(C/C(=N/O)c2ccccc2)NO)cc1 (stereo not given)
17,96,COC(=O)Cn1ccnc1[N+](=O)[O-]
18,185 to 187,Cc1nc(-c2ccccc2)ncc1C(=O)NN
19,295 to 296,O=C(O)[C@@H]1Cc2c([nH]c3ccccc23)CN1
20,75,CCCCCCCCCCCCCCCCCCCCCCCCCCCCCCCCCCC
21,48 to 50,Cc1ccc(-n2cccc2C=O)cc1
22,163,NC(N)=Nc1nc(CSCCC(N)=NS(N)(=O)=O)cs1
23,38,c1ccc2sncc2c1
24,139,O=C(O)COc1ccc(Cl)c(Cl)c1
25,46,Nc1ccc(S)cc1
26,25,COc1ccc(OC)c(F)c1

row,melting point [°C],Compound
1,218 to 223,NC(=O)CC[C@H](NC(=O)OCC1c2ccccc2-c2ccccc21)C(=O)O
2,96 to 98,NC(=S)c1ccsc1
3,249,Cn1c(=O)c(C2=NNC(=O)C2=CCc2ccccc2)c(O)c2ccccc21
4,133,COc1ccc2c(c1)CCC(C(=O)O)C2C (stereo not given)
5,115 to 117,COc1ccc(C(O)C(C)(C)C(=O)O)cc1 (stereo not given)
6,150,CN(C)c1ccc(N=C(C#N)c2cccc(C(C#N)=Nc3ccc(N(C)C)cc3)c2)cc1
7,113 to 115,O=C(CBr)c1ccc(-c2ccsc2)cc1
8,6,CC(C)(C)C=O
9,222 to 224,Cn1nc([N+](=O)[O-])c2c(=O)cc[nH]c21
10,30,Nc1ccc(OC(F)(F)F)c(Cl)c1
11,118 to 119,O=S(=O)(Cl)c1ccc2ncsc2c1
12,92 to 95,O=C(CS(=O)(=O)c1ccccc1)c1ccccc1
13,292 to 293,Cn1c2ccccc2n2c(=O)c3cccnc3c(C#N)c12
14,209,COc1c(O)ccc2c1C(=O)N1CCc3cc4c(cc3[C@@H]1C2)OCO4
15,14,Cc1cc(C)c(C=O)c(C)c1
16,175 to 177,Cc1nn(-c2ccccc2)nc1C(N)=O
17,110,COc1ccc(-c2occ(C(=O)c3ccccc3)c2S(=O)(=O)c2ccccc2)cc1
18,150,COC(=O)c1ccc2c(I)c[nH]c2c1
19,300,CC(C)C[C@@H](N)C(=O)O
20,170,Cc1ccc(-c2nc(C(=O)O)cs2)cc1
21,93,O=[N+]([O-])c1ccc2c(c1)CCN2
22,182,CN(C)CCCC1(c2ccc(F)cc2)OCc2cc(C#N)ccc21 (stereo not given)
23,271 to 274,O=C(O)c1ccc(-c2cccnc2)cc1
24,100,C[Si]1(c2ccccc2)O[Si](C)(c2ccccc2)O[Si](C)(c2ccccc2)O1 (stereo not given)
25,158,COc1cc2c(N)nc(N3CCN(C(=O)OCC(C)(C)O)CC3)nc2c(OC)c1OC
